Reference: US20230123334A1, “AMINO LIPID COMPOUND, PREPARATION METHOD THEREFOR, AND APPLICATION THEREOF” (SHENZHEN SHENXIN BIOTECHNOLOGY CO., LTD., priority 2020, published 2023)

Tested on: HEK293 cells
Experiment: Preliminary screening as DNA vectors, GFP transfection of HEK293 cells
Type: cell-based
Conditions: HEK293 cells; lipid/DOPE liposome with 75 ng plasmid DNA (psin-EGFP-IRES-Puro); number of cells expressing GFP divided by total number of nuclei (Hoechst)
Summary of the method: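 HEK293 cells in DMEM/10% FBS transfected with 75 ng EGFP plasmid per well complexed with amino lipid/DOPE liposomes in pH 5.6 sodium acetate. Hoechst nuclear stain added 20-24 h post-transfection, then cells cultured another 20-24 h. Confocal imaging gives GFP-positive cells as % of total nuclei.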

SMILES	Absolute DNA transfection efficiency in HEK293 cells
CCCCCCCCCCCCN(CCCCCCCCCCCC)c1nc(NCCCCCCCCCCC)nc(NCCCN2CCN(C)CC2)n1 [Compound N112N12D9]	0.1%

Same assay, conditions: amino lipid/DOPE liposome with 75 ng plasmid DNA (psin-EGFP-IRES-Puro); number of GFP-expressing cells divided by total nuclei (Hoechst)

SMILES	Absolute DNA transfection efficiency in HEK293 cells
CCCCCCCCCCCCCCCCNc1nc(NCCN2CCOCC2)nc(SCCCCCCCCCCCCCC)n1 [S14N16 D2]	0.0%
CCCCCCCCCCSc1nc(NCCN2CCN(C)CC2)nc(SCCCCCCCC)n1 [S8S10 D5]	19.5%
CCCCCCCCCCCCNc1nc(NCCCN2CCOCC2)nc(SCCCCCC)n1 [S6N12 D8]	4.0%
CCCCCCCCCCCCNc1nc(NCCCN(C)C)nc(SCCCCCCCCC)n1 [S9N12 D6]	70.5%
CCCCCCCCCCCNc1nc(NCCN(C)C)nc(SCCCCCCC)n1 [S7N11 D1]	20.3%
CCCCCCCCCCCCCCCCSc1nc(NCCN(CC)CC)nc(N(CCCCCCCCCCCC)CCCCCCCCCCCC)n1 [S16^2N12 D7]	0.1%
CCCCCCCCNc1nc(NCCCN2CCN(C)CC2)nc(SCCCCCCC)n1 [S7N8 D9]	14.9%
CCCCCCCCCCSc1nc(NCCCCCCCCC)nc(NCCN2CCN(C)CC2)n1 [S10N9 D5]	11.9%
CCCCCCCCCCCCCCCSc1nc(NCCCCCCCCCCCC)nc(NCCCN2CCN(C)CC2)n1 [S15N12 D9]	3.3%
CCCCCCCCCNc1nc(NCCCN(C)C)nc(SCCCCCC)n1 [S6N9 D6]	1.5%
CCCCCCCCCCCCCCCCNc1nc(NCC2CCN(C)CC2)nc(SCCCCCCCCCCCCCC)n1 [S14N16 D10]	0.7%
CCCCCCCCCCCNc1nc(NCCCN(C)C)nc(SCCCCCC)n1 [S6N11 D6]	1.9%
CCCCCCCCCCCCSc1nc(NCCCCCCC)nc(NCCN2CCOCC2)n1 [S12N7 D2]	0.1%
CCCCCCCCCCSc1nc(NCCN2CCCCC2)nc(SCCCCCCC)n1 [S7S10 D4]	8.1%
CCCCCCCCCCCCCCCCCCNc1nc(NCCN2CCN(C)CC2)nc(SCCCCCCCCCCCCCCC)n1 [S15N18 D5]	0.3%
CCCCCCCCCCCCCCCCCCSc1nc(NCCCCCCCCCCCC)nc(NCCN2CCCCC2)n1 [S18N12 D4]	0.3%
CCCCCCCCSc1nc(NCCN(C)C)nc(SCCCCCCC)n1 [S7S8 D1]	6.7%
CCCCCCCCCCCCCNc1nc(NCCN(CC)CC)nc(SCCCCCCC)n1 [S7N13 D7]	3.1%
CCCCCCCCCCCCCCSc1nc(NCCCN2CCOCC2)nc(SCCCCCCC)n1 [S7S14 D8]	11.0%
CCCCCCCCCNc1nc(NCCCN(C)C)nc(SCCCCCCCCC)n1 [S9N9 D6]	60.6%
CCCCCCCCCCCCCCCCCCSc1nc(NCCCCCC)nc(NCCCN2CCOCC2)n1 [S18N6 D8]	5.5%
CCCCCCCCCNc1nc(NCCN2CCN(C)CC2)nc(SCCCCCCCC)n1 [S8N9 D5]	35.9%
CCCCCCCCCCCCCCCCSc1nc(NCCCCCCCC)nc(NCCN2CCCC2)n1 [S16N8 D3]	13.2%
CCCCCCCCCCCCCCCNc1nc(NCCN(CC)CC)nc(SCCCCCCC)n1 [S7N15 D7]	7.2%

SMILES	Absolute DNA transfection efficiency in HEK293 cells
CCCCCCCCCCCCSc1nc(NCCCCCCCC)nc(NCCCN2CCOCC2)n1 [S12N8 D8]	0.0%
CCCCCCCCCCCCCNc1nc(NCCN2CCOCC2)nc(SCCCCCCCCCCCC)n1 [S12N13 D2]	0.0%
CCCCCCCCCSc1nc(NCCN2CCN(C)CC2)nc(SCCCCCC)n1 [S6S9 D5]	13.7%
CCCCCCCCCCCCN(CCCCCCCCCCCC)c1nc(NCCCN2CCOCC2)nc(SCCCCCCC)n1 [S7^2N12 D8]	0.0%
CCCCCCCSc1nc(NCCN2CCCC2)nc(SCCCCCC)n1 [S6S7 D3]	1.4%
CCCCCCCCCCCCCCSc1nc(NCCCCCCCCCCC)nc(NCCCN(C)C)n1 [S14N11 D6]	17.0%
CCCCCCCCCCCCCCCNc1nc(NCCCN2CCN(C)CC2)nc(SCCCCCCCCC)n1 [S9N15 D9]	10.9%
CCCCCCCCCSc1nc(NCC2CCN(C)CC2)nc(SCCCCCCC)n1 [S7S9 D10]	16.3%
CCCCCCCCCCCSc1nc(NCCCCCCCCC)nc(NCCN2CCOCC2)n1 [S11N9 D2]	13.6%
CCCCCCCCCCCCCCCCSc1nc(NCCN2CCN(C)CC2)nc(SCCCCCCC)n1 [S7S16 D5]	7.9%
CCCCCCCCCCCCCCCCCCSc1nc(NCCCCCCCCCCC)nc(NCCN(C)C)n1 [S18N11 D1]	3.7%
CCCCCCCCCCCCCCCCCCNc1nc(NCCN(CC)CC)nc(SCCCCCCC)n1 [S7N18 D7]	3.9%
CCCCCCCCCCCCN(CCCCCCCCCCCC)c1nc(NCCN2CCCCC2)nc(SCCCCCCC)n1 [S7^2N12 D4]	0.0%
CCCCCCCCCSc1nc(NCCCN2CCOCC2)nc(SCCCCCCCC)n1 [S8S9 D8]	16.0%
CCCCCCCCCCCCCCSc1nc(NCCCCCCCCCCC)nc(NCCN(C)C)n1 [S14N11 D1]	11.8%
CCCCCCCCCCCCCCCCCCNc1nc(NCCN2CCCC2)nc(SCCCCCCCCCCCCCCCCCC)n1 [S18N18 D3]	0.0%
CCCCCCCCCCCCCCCCNc1nc(NCCN(CC)CC)nc(SCCCCCCCCCCCCCCC)n1 [S15N16 D7]	0.4%
CCCCCCCCCCCCCCCSc1nc(NCCCCCCCCCCCC)nc(NCCN2CCN(C)CC2)n1 [S15N12 D5]	5.7%
CCCCCCCCCCCCSc1nc(NCCN2CCN(C)CC2)nc(SCCCCCCC)n1 [S7S12 D5]	9.6%
CCCCCCCCCCSc1nc(NCCCCCC)nc(NCCN2CCN(C)CC2)n1 [S10N6 D5]	7.0%
CCCCCCCCCNc1nc(NCCCN2CCN(C)CC2)nc(SCCCCCC)n1 [S6N9 D9]	0.8%
CCCCCCCCCCCCCCCCSc1nc(NCCCCCCCC)nc(NCCN(CC)CC)n1 [S16N8 D7]	4.6%
CCCCCCCCCCCCCCCCCCSc1nc(NCCCCCCCCC)nc(NCCN2CCN(C)CC2)n1 [S18N9 D5]	7.7%
CCCCCCCCCCCCCNc1nc(NCCN(C)C)nc(SCCCCCCCCCCCC)n1 [S12N13 D1]	1.4%

SMILES	Absolute DNA transfection efficiency in HEK293 cells
CCCCCCCCCCCCCCCCNc1nc(NCCN2CCCCC2)nc(SCCCCCCCCCCC)n1 [S11N16 D4]	4.4%
CCCCCCCCCCCCN(CCCCCCCCCCCC)c1nc(NCCN2CCCCC2)nc(SCCCCCCCCCC)n1 [S10^2N12 D4]	0.1%
CCCCCCCSc1nc(NCCCCCC)nc(NCCN2CCOCC2)n1 [S7N6 D2]	1.8%
CCCCCCCCCNc1nc(NCCN2CCOCC2)nc(SCCCCCCCC)n1 [S8N9 D2]	10.7%
CCCCCCCCCCCCSc1nc(NCCCCCC)nc(NCCCN(C)C)n1 [S12N6 D6]	1.1%
CCCCCCCCCCCCCCCCNc1nc(NCCCN2CCOCC2)nc(SCCCCCCCCC)n1 [S9N16 D8]	18.4%
CCCCCCCCCCSc1nc(NCCN2CCCCC2)nc(SCCCCCC)n1 [S6S10 D4]	4.5%
CCCCCCCCCCCCCCSc1nc(NCCCCCCCCCCCC)nc(NCCCN2CCOCC2)n1 [S14N12 D8]	2.1%
CCCCCCCCCCSc1nc(NCCCCCC)nc(NCCN2CCCCC2)n1 [S10N6 D4]	5.7%
CCCCCCCCCCCCCCSc1nc(NCCCCCCCCCCC)nc(NCCCN2CCOCC2)n1 [S14N11 D8]	2.2%
CCCCCCCCCCCCCCSc1nc(NCCCCCC)nc(NCCN(C)C)n1 [S14N6 D1]	24.1%
CCCCCCCCCCCCCCCCSc1nc(NCCCCCCC)nc(NCCN(C)C)n1 [S16N7 D1]	13.0%
CCCCCCCCCCCCCCCCCCNc1nc(NCCN2CCOCC2)nc(SCCCCCCCCC)n1 [S9N18 D2]	10.2%
CCCCCCCCCCCCCCCSc1nc(NCCN2CCOCC2)nc(N(CCCCCCCCCCCC)CCCCCCCCCCCC)n1 [S15^2N12 D2]	0.0%
CCCCCCCCCCCCCCCCNc1nc(NCCCN(C)C)nc(SCCCCCCCCCCCCCCC)n1 [S15N16 D6]	0.0%
CCCCCCCCCCCNc1nc(NCCCN(C)C)nc(SCCCCCCC)n1 [S7N11 D6]	42.1%
CCCCCCCCCCCCNc1nc(NCCN2CCCCC2)nc(SCCCCCCCCCCC)n1 [S11N12 D4]	3.4%
CCCCCCCCCCCCSc1nc(NCCCCCCCCCCC)nc(NCCCN(C)C)n1 [S12N11 D6]	14.9%
CCCCCCCCCCCCCCSc1nc(NCCCCCCCCCCCC)nc(NCCN(C)C)n1 [S14N12 D1]	15.3%
CCCCCCCCCCCCCCCCSc1nc(NCCCCCCCC)nc(NCCCN2CCN(C)CC2)n1 [S16N8 D9]	10.9%
CCCCCCCCCCSc1nc(NCCN(C)C)nc(SCCCCCCCC)n1 [S8S10 D1]	16.3%
CCCCCCCCCCCNc1nc(NCCCN2CCOCC2)nc(SCCCCCCC)n1 [S7N11 D8]	13.9%
